From patent US11993640B2, “Treating inflammatory lung disease” (United States Government as represented by the Department …, priority 2019, dated 2024)
Non-standard residues stand in square brackets, D forms with d. Residues, ends and D or L forms follow the SMILES beside them. *: point of attachment. Phe(F5) = N[C@@H](Cc1c(F)c(F)c(F)c(F)c1F)C(=O)O; Phe(4-Cl) = N[C@@H](Cc1ccc(Cl)cc1)C(=O)O; hArg = N=C(N)NCCCC[C@H](N)C(=O)O; 12Ado = NCCCCCCCCCCCC(=O)O; Nle = CCCC[C@H](N)C(=O)O; Orn = NCCC[C@H](N)C(=O)O; Abu = CC[C@H](N)C(=O)O; PhAc = O=C(Cc1ccccc1)*

What was measured:
Assay type in all cases: cell-based, human
Conditions in all cases: 5 μM, 72 h; relative to MIA602 = 1; Table 3A
NCI-N87 cells = assay: In vitro cell viability (CellTiter 96), stomach cancer N87
Experimental: (§1) The inhibitory effects of the various synthesized GHRH antagonists were tested in cell proliferation assays in various human cancer cell lines including stomach cancer (KATOIII, N87), colon cancer (HT-29), urothelial cancer (J82, RT4), pancreatic cancer (PANC-1, CFPAC-1), prostatic cancer (PC3), breast cancer (MX-1, HCC1806), ovarian cancer (SK-OV-3, OVCAR-3) and lung cancer (HCC827, H460).
(§2) Cell culture. Human cancer cell lines including pancreatic (PANC-1 and CFPAC-1), lung (HCC827 and H460), stomach (NCI-N87 and KATOIII), urothelial (J82, RT4), prostatic (PC3), breast (MX-1 and HCC 1806), colorectal (HT-29), and ovarian (SK-OV-3 and OVCAR-3) were obtained from the American Type Culture Collection (ATCC) and cultured at 37° C. in a humidified 95% air/5% CO2 atmosphere in the medium recommended by ATCC.
(§3) In vitro cell viability. Cell viability was analyzed as follows: cancer cells including pancreatic (PANC-1 and CFPAC-1), lung (HCC827 and H460), stomach (NCI-N87 and KATOIII), urothelial (J82, RT4), prostatic (PC3) and breast (MX-1 and HCC 1806), colorectal (HT-29) and ovarian (SK-OV-3 and OVCAR-3) were grown on 96 well plates to ˜60% confluence, the cells were starved for 24 h in culture medium containing 0.5% FBS. Cells were then treated with GHRH antagonists MIA602 AVR compounds at concentrations of 1, 2.5 or 5 μM, or vehicle (0.1% DMSO) in quintuplicates for 72 hours. The medium was replaced every 48 hours. Cell viability was measured using CellTiter 96 aqueous one solution kit (Promega). Inhibitory effects of tested AVR compounds in comparison to that of MIA602 are presented as inhibitory potency.
(§4) Inhibitory effects of selected AVR compounds in comparison to that of MIA602 are presented as inhibitory potency (e.g., percentage of inhibition). […] The cell lines tested including lung cancer HCC827 (FIG. 2A), pancreatic cancer CFPAC-1 (FIG. 2B), stomach cancer N87 (FIG. 2C), colon cancer HT-29 (FIG. 2D), breast cancers MX-1 and HCC1806 (FIGS. 2E, F). Based on the results of cell proliferation assay after cancer cells were treated with antagonist at concentration of 5 μM for 72H, the relative inhibitory potency of AVR antagonists in comparison to MIA-602 is summarized in Table 3 A and B. Over 60 AVR compounds were tested in 12 cancer cell lines.
(§5) Based on the results of cell proliferation assay after cancer cells were treated with antagonist at concentration of 5 µM for 72H, * at concentration of 2 µM for 72 H.

KATOIII cells = assay: In vitro cell viability, stomach cancer KATOIII
Experimental: as §1, §2, §3, §4

HCC827 cells = assay: In vitro cell viability, lung cancer HCC827
Experimental: as §1, §2, §3, §4, §5

CFPAC-1 cells = assay: In vitro cell viability, pancreatic cancer CFPAC-1
Experimental: as §1, §2, §3, §4, §5

PANC-1 cells = assay: In vitro cell viability, pancreatic cancer PANC-1
Experimental: as §1, §2, §3, §4

J82 cells = assay: In vitro cell viability, urothelial cancer J82
Experimental: as §1, §2, §3, §4

## CCCC[C@H](NC(=O)[C@@H](NC(=O)[C@H](CC(=O)O)NC(=O)[C@H](CCC(N)=O)NC(=O)[C@H](CC(C)C)NC(=O)[C@H](CC(C)C)NC(=O)[C@H](CCCN)NC(=O)[C@H](Cc1c[nH]cn1)NC(=O)[C@H](C)NC(=O)[C@H](CO)NC(=O)[C@H](CC(C)C)NC(=O)[C@H](CCC(N)=O)NC(=O)[C@H](CC)NC(=O)[C@H](CC(C)C)NC(=O)[C@@H](NC(=O)[C@H](CCCCN)NC(=O)[C@H](CCCNC(=N)N)NC(=O)[C@H](Cc1c(F)c(F)c(F)c(F)c1F)NC(=O)[C@H](CCCNC(=N)N)NC(=O)[C@H](C)NC(=O)[C@@H](NC(=O)[C@H](Cc1ccc(Cl)cc1)NC(=O)[C@@H](NC(=O)[C@H](C)NC(=O)[C@H](CC(=O)O)NC(=O)[C@@H](CCCNC(=N)N)NC(=O)[C@H](Cc1ccc(O)cc1)NC(=O)CCCCCCCCCCCNC(=O)Cc1ccccc1)[C@@H](C)CC)[C@@H](C)O)C(C)C)[C@@H](C)CC)C(=O)N[C@H](CCCNC(=N)N)C(=O)N[C@@H](CCCCNC(=N)N)C(N)=O [AVR-116, PhAC-Ada-Tyr-DArg-Asp-Ala-Ile-Cpa-Thr-Ala-Arg-5FPhe-Arg-Lys-Val-Leu-Abu-Gln-Leu-Ser-Ala-His-Orn-Leu-Leu-Gln-Asp-Ile-Nle-DArg-Har-NH2] ({PhAc-12Ado}-Y[dR]DAI[Phe(4-Cl)]TAR[Phe(F5)]RKVL[Abu]QLSAH[Orn]LLQDI[Nle][dR][hArg]-NH2)
NCI-N87 cells
  Relative inhibitory potency, Stomach N87: 2.484
KATOIII cells
  Relative inhibitory potency, Stomach KATOIII: 1.202
HCC827 cells
  Relative inhibitory potency, Lung HCC827: 2.470
CFPAC-1 cells
  Relative inhibitory potency, Pancreatic CFPAC-1: 1.445
PANC-1 cells
  Relative inhibitory potency, Pancreatic Panc-1: 1.208
J82 cells
  Relative inhibitory potency, Urothelial J82: 3.034
